Results reported in patent publication US20140378515A1, “IMMUNOSUPPRESSIVE COMPOUNDS” (priority 2013, published 2014).
≈ marks a conversion by molar mass, not a printed value. Where “and” joins values, the source holds several entries; their conditions need not be identical. Equal entries are not always repeated.

How the values were obtained:
[1] = test system: 3T3 NIH mouse embryo fibroblast cell line; assay: MTT cytotoxicity assay; settings: for interference with the growth of 3T3 cells: up to 20 μg/mL; for Cytotoxicity IC50: 3T3 NIH cells, 48 h
Method: The 3T3-NIH cells were suspended in Dulbecco's Modified Eagle's Medium (DMEM) formulated with 10% FBS. Using flat bottomed plates, cells were plated at a concentration of 6×10^4 cells/mL and incubated for 24 h at 37° C. and 5% CO2 environment. […] Following exposure to each compound, cell viability was assessed by using 0.5 mg/mL of MTT {3-(4,5-dimethylthiazol-2-yl)-2,5-diphenyltetrazolium bromide for 4 h followed by the removal of supernatant and addition of DMSO to solubilize the formazan complex. The plates were read at 540 nm after one minute shaking and readings were processed using MS Excel software. The results were expressed as means±SD of triplicate readings.

[2] = test system: NO produced by mouse macrophages J774.2 cell line; assay: Nitrite accumulation in LPS-stimulated J774.2 macrophages (Griess method); assay type: cell-based; settings: LPS-stimulated J774.2, 24 hours
Method: The mouse macrophage cell line J774.2 obtained from ECACC, Salisbury, Wiltshire (UK) was cultured in T75 flasks in complete DMEM containing 10% fetal bovine serum and supplemented with 1% streptomycin/penicillin. Flasks were kept at 37° C. in the atmosphere of humidified air containing 5% CO2. Cell were then seeded in 24 well (10^6 cells/mL) and nitric oxide synthase (NOS-2) in the macrophages was induced by addition of 20 μg/mL E. coli lipopolysaccharide (DIFCO Laboratories, Michigan, USA). The test compounds were added at a concentration of 25 μg/mL soon after LPS stimulation and incubated at 37° C. in 5% CO2. Cell culture supernatant was collected after 24 hours. Nitrite accumulation in J774.2 cell culture supernatant was measured using the Griess method, where 50 μL of 1% sulphanilamide in 2.5% phosphoric acid, followed by 50 μL of 0.1% naphtyl-ethylene diamine dihydrochloride in 2.5% phosphoric acid were added to 50 μL culture medium. After 10 minutes of incubation at room temperature the absorbance at 550 nm was read. Micromolar concentrations of nitrite were calculated from standard curve constructed with sodium nitrite a reference compound. The results were expressed as means±SD of duplicate readings.

T-cell proliferation = T-cell proliferation assay (PHA-stimulated PBMNCs, 3H-thymidine incorporation); assay type: cell-based, human; parameters: unit not given here; settings: PHA 5 μg/mL stimulated PBMNCs
Method: The diluted blood was then layered onto lymphocyte separation medium (MP Biomedicals, Inc., Ohio, USA) and centrifuged at 400 g for 20 min at 25° C. […] Plates were then incubated at 37° C. in a humidified atmosphere of 5% CO2 in air for 72 hours. To each well, 0.5 μCi [methyl ^3H]-thymidine (Amersham Place Little Chalfont, Buckinghamshire, UK) was added for an additional 18 hours. Cells were harvested using a cell harvester (Inotech, Dottikon, Switzerland), and incorporation and level of radioactivity was measured by a liquid scintillation counter (Beckman coulter, LS 6500, Fullerton, Calif., USA).

[3] = test system: ROS produced by human blood phagocytes; assay: Oxidative burst, luminol-enhanced chemiluminescence in whole blood; assay type: cell-based; settings: serum opsonized zymosan
Method: Formation of the reactive oxygen species (ROS) in whole blood, during the oxidative burst was measured by the luminol-enhanced chemiluminescence assay. In brief, three concentrations of each compound (1.0, 10 and 100 μg/mL) were prepared in 25 μL of Hank's Balanced salt solution containing calcium chloride and magnesium sulfate (HBSS^++) in a half area 96-well white flat-bottomed plate (Sigma Aldrich, Steinheim, Germany) in a final volume of 100 μL. Then 25 μL of whole blood diluted 1:50 in suspension of HBSS^++ was added.
Positive and negative controls and blank wells were included. Cells and compounds were incubated for 30 minutes at 37° C., then 25 μL luminol [3-aminophthalhydrazide] (Research Organics Cleveland, Ohio, USA), were added into each well followed by 25 μL of serum opsonized zymosan (Saccharomyces cerevisiae origin) purchased from Fluka, Buchs (Switzerland) was added except for negative and blank wells. The ROS chemiluminescence kinetic was monitored with a luminometer from Labsystems (Helsinki, Finland), for 50 minutes in the repeated scan mode. Peak and total integral chemiluminescence readings were expressed in the relative light unit.

IL-2 production = IL-2 production by PHA/PMA stimulated PBMCs (ELISA); assay type: cell-based, human; settings: for IC50: experimental IL-2 IC50 listed in Table 3
Method: The PBMCs were cultured in a 96-well flat-bottomed plate (1.0×10^5 cell/well) in the presence or absence of three concentrations of test compounds (1.0, 5.0 and 20 μg/mL), and phytohemagglutinin (PHA) phorbol myristate acetate (PMA) in a final concentration of 5 ng/mL and 20 ng/mL, respectively. After an incubation period of 18 h at 37° C. in a humidified atmosphere of 5% CO2 in air, the supernatant was collected for IL-2 determination. Interleukin-2 levels were measured by using enzyme-linked immunosorbent assay (ELISA) development kit (R&D systems, Minneapolis, Minn., USA). The assay was performed according to the manufacturer's instructions. Briefly, a 96-well flat-bottomed ELISA plate was coated with 4.0 μg/mL mouse anti-human IL-2, in PBS, pH 7.4. Then, re-combinant human IL-2 standards and culture supernatant samples were added and incubated for 2 h followed by washing steps and then the addition of biotinylated goat anti-human IL-2. After an incubation period of 2 h at room temperature, the plates were again washed and streptavidin conjugated horse raddish peroxidase was added and incubated for additional 20 min at room temperature. After the final washes, an enzyme substrate solution of H2O2 and tetra methyl benzidine (1:1 v/v) was added and the color was allowed to develop at room temperature in the dark. The plates were then read at 450 nm in a plate reader (DIAReader GMBH, Wr. Neudorf, Austria). The results were analyzed using Microsoft Excel.

[4] = test system: NO produced by mouse macrophages J774.2 cell line; assay: Nitrite accumulation in LPS-stimulated J774.2 macrophages (Griess method); assay type: cell-based
IL-4 production = IL-4 production by PHA stimulated PBMNCs (ELISA); assay type: cell-based, human; settings: 18 h
Method: The PBMNCs were cultured in a 96-well flat-bottomed plate (2.0×10^6 cell/mL) in the presence or absence of three concentrations of test compounds (1.0, 5.0, and 25 μg/mL), and phytohemagglutinin (PHA) in a final concentration of 7.5 μg/mL. After an incubation period of 18 h at 37° C. in 5% CO2, supernatant was collected for IL-4 determination. Interleukin-4 levels were measured by using enzyme-linked immunosorbent assay (ELISA) kit (Diaclone, France). The assay was performed according to the manufacturer's instructions. Briefly, in a 96-well ELISA plate which was coated with monoclonal mouse anti-human IL-4, 100 μl recombinant human IL-4 standards and culture supernatants samples were added. The plates were incubated for 2 hours at room temperature and washed three times with wash buffer, followed by the addition of biotinylated goat anti-human IL-4 and further incubated for 1 hour at room temperature. The plates were again washed and streptavidin conjugated horse raddish peroxidase was added and incubated for an additional 20 minutes at room temperature. After three final washes, the enzyme substrate solution was added and incubated for 12 to 15 minutes to allow color development at room temperature in the dark. Then stop solution was added and the plates were read at 450 nm in a plate reader (DIAReader GMBH, Wr. Neudorf, Austria). The results were analyzed using Microsoft Excel.

SMILES | interference with the growth of 3T3 cells [1] | % of NO inhibited by 25 μg/mL of compound [2] | IC50 (μg/mL) for phagocytes ROS [3] | Cytotoxicity IC50 [1] | further results
Oc1cccc(-c2nc3ccccc3s2)c1O [Compound 10] | did not interfere with the growth of 3T3 cells | 14.3 ± 1.0% | 1.1 ± 0.1 µg/mL |  | IC50 T-cell proliferation (T-cell proliferation): 0.99±0.1
Oc1ccc(-c2nc3ccccc3s2)cc1 [Compound 4] | did not interfere with the growth of 3T3 cells | 56.1±0.6% | >100 µg/mL | >25 µg/mL | IC50 (IL-2 production): 2.9 µg/mL (≈ 12.8 µM); IC50 T-cell proliferation (T-cell proliferation): 2.3±0.1; IC50 NO production [4]: 7.9 ± 0.9 µg/mL (≈ 34.8 µM)
Cc1ccc(-c2nc3ccccc3s2)cc1 [Compound 15] |  | 10.8 ± 2.4% | >100 µg/mL |  | 
Oc1ccc(Cl)cc1-c1nc2ccccc2s1 [Compound 6] |  | 35.5 ± 7.4% | 34.3 ± 4.4 µg/mL |  | 
Oc1cccc(-c2nc3ccccc3s2)c1 [Compound 5] | did not interfere with the growth of 3T3 cells | 44.5 ± 0.3% | >100 µg/mL | >20 µg/mL | IC50 IL-2 production (IL-2 production; PHA/PMA stimulated PBMCs, 18 h incubation): 6.0 µg/mL (≈ 26.4 µM); IC50 T-cell proliferation (T-cell proliferation): 2.7±0.2; IC50 IL-4 production (IL-4 production): 8.9 ± 0.6 µg/mL (≈ 39.2 µM)
Oc1cc(O)c(-c2nc3ccccc3s2)cc1O [Compound 18] |  | 78.1±1.6% | >100 µg/mL | 10.4 µg/mL | IC50 (IL-2 production): 1.1 µg/mL (≈ 4.24 µM); IC50 T-cell proliferation (T-cell proliferation): 1.95±0.4; IC50 IL-4 production (IL-4 production): 8.0 ± 0.0 µg/mL (≈ 30.9 µM)
Oc1ccc(-c2nc3ccccc3s2)c(O)c1 [Compound 13] | did not interfere with the growth of 3T3 cells | 32.7 ± 8.3% | 11.1 ± 0.9 µg/mL | 11.5 ± 0.0 µg/mL | 
CN(C)c1ccc(-c2nc3ccccc3s2)cc1 [Compound 14] | did not interfere with the growth of 3T3 cells | 16.8 ± 0.8% | 11.8 ± 1.2 µg/mL | >25 µg/mL | 
Cc1ccccc1-c1nc2ccccc2s1 [Compound 7] |  | 5.4 ± 2.8% | >100 µg/mL |  | 
Clc1ccc(-c2nc3ccccc3s2)cc1Cl [Compound 26] |  | 35.7 ± 1.5% | >100 µg/mL |  | 
c1csc(-c2nc3ccccc3s2)c1 [Compound 24] | did not interfere with the growth of 3T3 cells | 30.3 ± 0.3% | 14.4 ± 2.5 µg/mL | >25 µg/mL | 
Fc1ccccc1-c1nc2ccccc2s1 [Compound 23] |  | 28.4 ± 2.5% | >100 µg/mL |  | 
CC(C)Cc1ccc(C(C)C(=O)O)cc1 (centres unmarked) [Ibuprofen, reference compound] |  |  |  |  | IC50 ([3]; read-out: IC50 (μg/mL) for phagocytes ROS): 11.8 ± 1.2 µg/mL
CCOc1ccc(-c2nc3ccccc3s2)cc1 [Compound 22] |  | 23.5 ± 3.7% | >100 µg/mL |  | 
Brc1ccc(-c2nc3ccccc3s2)cc1 [Compound 21] |  | 11.5 ± 2.7% | >100 µg/mL |  | 
c1ccc2cc(-c3nc4ccccc4s3)ccc2c1 [Compound 3] |  | 20.5 ± 5.9% | >100 µg/mL |  | 
c1cncc(-c2nc3ccccc3s2)c1 [Compound 19] |  | 11.7 ± 1.7% | >100 µg/mL |  | 
COc1ccc(-c2nc3ccccc3s2)cc1OC [Compound 12] |  | −1.5 ± 0.6% | >100 µg/mL |  | IC50 T-cell proliferation (T-cell proliferation): 1.0±0.1; IC50 IL-4 production (IL-4 production): < 1.0 µg/mL
Clc1cccc(-c2nc3ccccc3s2)c1 [Compound 17] |  | 14.1 ± 3.0% | 81.0 ± 4.1 µg/mL |  | 
Clc1ccc(-c2nc3ccccc3s2)c(Cl)c1 [Compound 11] |  | −7.4 ± 3.0% | >100 µg/mL |  | 
Oc1ccc(O)c(-c2nc3ccccc3s2)c1 [Compound 8] | did not interfere with the growth of 3T3 cells | 91.1±0.7% | <1 µg/mL | >20 µg/mL | IC50 (IL-2 production): <1 µg/mL; IC50 T-cell proliferation (T-cell proliferation): 1.1±0.1; IC50 NO production [4]: < 5 µg/mL; IC50 IL-4 production (IL-4 production): 9.8 ± 0.6 µg/mL (≈ 40.3 µM)
CCOc1cccc(-c2nc3ccccc3s2)c1O [Compound 1] |  | 26.5 ± 0.0% | >100 µg/mL |  | 
c1ccc2sc(-c3ccncc3)nc2c1 [Compound 20] |  | 41.6 ± 4.7% | 15.5 ± 1.0 µg/mL | >25 µg/mL | 
Clc1ccc(-c2nc3ccccc3s2)cc1 [Compound 25] |  | 20.6 ± 5.3% | >100 µg/mL |  | 
Oc1ccc(-c2nc3ccccc3s2)cc1O [Compound 9] | did not interfere with the growth of 3T3 cells | 58.5±3.3% | 3.7 ± 0.2 µg/mL | 11.1 µg/mL and 11.4 ± 1.8 µg/mL | IC50 T-cell proliferation (T-cell proliferation): 1.2±0.0; IC50 NO production [4]: 12.6 ± 2.1 µg/mL (≈ 51.8 µM)
Oc1ccccc1-c1nc2ccccc2s1 [Compound 16] |  | 20.2 ± 1.5% | >100 µg/mL |  | 
